Measured values published in PubChem BioAssay AID2060908 (Molecular Pharmacology Branch, DTP, NCI, 2025).
Where “and” joins values, the source holds several entries; their conditions need not be identical. Equal values may be shown once.

Tested on: 186277-243-T-J2-PDC complex spheroids, viability
Test: Anticancer human tumor 186277-243-T-J2-PDC patient-derived colon adenocarcinoma cell line growth inhibition [RAS]
Conditions: for viability, T/C: stronger effect = lower value
In short: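 Tumour cells grown as complex spheroids with HUVEC endothelial cells and mesenchymal stem cells, treated with RAS pathway inhibitor combinations. Each agent spans half-log steps from near clinical Cmax, or 10 microM where Cmax is unknown.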

[1] = curve of first compound, second compound 0.000949 µM
[2] = curve of first compound, second compound 0.003 µM
[3] = curve of first compound, second compound 0.00949 µM
[4] = curve of first compound, second compound 0.03 µM
[5] = curve of first compound, second compound 0.0949 µM
[6] = curve of first compound, second compound 0.3 µM
[7] = second compound 0.000949 µM, first compound 0.0316 µM
[8] = second compound 0.000949 µM, first compound 0.1 µM
[9] = second compound 0.000949 µM, first compound 0.316 µM
[10] = second compound 0.000949 µM, first compound 1 µM
[11] = second compound 0.003 µM, first compound 0.0316 µM
[12] = second compound 0.003 µM, first compound 0.1 µM
[13] = second compound 0.003 µM, first compound 0.316 µM
[14] = second compound 0.003 µM, first compound 1 µM
[15] = second compound 0.00949 µM, first compound 0.0316 µM
[16] = second compound 0.00949 µM, first compound 0.1 µM
[17] = second compound 0.00949 µM, first compound 0.316 µM
[18] = second compound 0.00949 µM, first compound 1 µM
[19] = second compound 0.03 µM, first compound 0.0316 µM
[20] = second compound 0.03 µM, first compound 0.1 µM
[21] = second compound 0.03 µM, first compound 0.316 µM
[22] = second compound 0.03 µM, first compound 1 µM
[23] = second compound 0.0949 µM, first compound 0.0316 µM
[24] = second compound 0.0949 µM, first compound 0.1 µM
[25] = second compound 0.0949 µM, first compound 0.316 µM
[26] = second compound 0.0949 µM, first compound 1 µM
[27] = second compound 0.3 µM, first compound 0.0316 µM
[28] = second compound 0.3 µM, first compound 0.1 µM
[29] = second compound 0.3 µM, first compound 0.316 µM
[30] = second compound 0.3 µM, first compound 1 µM
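Further: spheroids exposed to compounds for 7 days before viability read.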

Work on Nc1ccn(C2OC(CO)C(O)C2(F)F)c(=O)n1 (centres undefined) + CCn1c(-c2cccnc2C(C)OC)c2c3cc(ccc31)N1CCOC(CC(NC(=O)C(C(C)C)N(C)C(=O)C3(F)CCN(C(=O)C#CC(C)(C)N(C)C)CC3)C(=O)N3CCCC(N3)C(=O)OCC(C)(C)C2)C1 yielded an IC50 [1] of 4.49 nM, an IC50 [2] of 4.28 nM and an IC50 [3] of 3.48 nM. It also gave an IC50 [4] of 4.6 nM, an IC50 [5] of under 3.16 nM and an IC50 [6] of under 3.16 nM. It also gave a viability, T/C (second compound 0.000949 µM, first compound 0.00316 µM) of 67.5%, a viability, T/C (second compound 0.000949 µM, first compound 0.01 µM) of 10.1% and a viability, T/C [7] of 8.11%. For the same compound, the viability, T/C [8] was 7.98%, the viability, T/C [9] was 8.36% and the viability, T/C [10] was 8.73%. The viability, T/C (second compound 0.003 µM, first compound 0.00316 µM) was 63.9%, the viability, T/C (second compound 0.003 µM, first compound 0.01 µM) was 11.2% and the viability, T/C [11] was 8.78%. For the same compound, the viability, T/C [12] was 8.02%, the viability, T/C [13] was 8.07% and the viability, T/C [14] was 8.41%. The viability, T/C (second compound 0.00949 µM, first compound 0.00316 µM) was 53.5%, the viability, T/C (second compound 0.00949 µM, first compound 0.01 µM) was 10.5% and the viability, T/C [15] was 9.25%. It also gave a viability, T/C [16] of 7.85%, a viability, T/C [17] of 8.92% and a viability, T/C [18] of 8.55%. For the same compound, the viability, T/C (second compound 0.03 µM, first compound 0.00316 µM) was 68.8%, the viability, T/C (second compound 0.03 µM, first compound 0.01 µM) was 10.9% and the viability, T/C [19] was 8.53%. It also gave a viability, T/C [20] of 8.14%, a viability, T/C [21] of 8.68% and a viability, T/C [22] of 8.3%. It also gave a viability, T/C (second compound 0.0949 µM, first compound 0.00316 µM) of 44.6%, a viability, T/C (second compound 0.0949 µM, first compound 0.01 µM) of 10.5% and a viability, T/C [23] of 8.39%. For the same compound, the viability, T/C [24] was 7.33%, the viability, T/C [25] was 8.62% and the viability, T/C [26] was 7.75%. For the same compound, the viability, T/C (second compound 0.3 µM, first compound 0.00316 µM) was 30.3%, the viability, T/C (second compound 0.3 µM, first compound 0.01 µM) was 7.82% and the viability, T/C [27] was 6.28%. For the same compound, the viability, T/C [28] was 6.15%, the viability, T/C [29] was 6.47% and the viability, T/C [30] was 5.78%.

CCN1CCN(Cc2ccc(Nc3ncc(F)c(-c4cc(F)c5nc(C)n(C(C)C)c5c4)n3)nc2)CC1 was tested, and the viability, T/C (compound 0.01 µM) was 102% (3×) and 98.7%, the viability, T/C (compound 0.1 µM) was 127% [middle of 4 runs] and the IC50 (curve of compound) was over 1000 nM.

Work on CCc1c2c(nc3ccc(O)cc13)-c1cc3c(c(=O)n1C2)COC(=O)[C@]3(O)CC + CCn1c(-c2cccnc2C(C)OC)c2c3cc(ccc31)N1CCOC(CC(NC(=O)C(C(C)C)N(C)C(=O)C3(F)CCN(C(=O)C#CC(C)(C)N(C)C)CC3)C(=O)N3CCCC(N3)C(=O)OCC(C)(C)C2)C1 yielded an IC50 [1] of 9.82 nM, an IC50 [2] of 13.6 nM and an IC50 [3] of 11.1 nM. The IC50 [4] was 10.2 nM, the IC50 [5] was 7.53 nM and the IC50 [6] was 2.85 nM. The viability, T/C (second compound 0.000949 µM, first compound 0.000949 µM) was 157%, the viability, T/C (second compound 0.000949 µM, first compound 0.003 µM) was 83.7% and the viability, T/C (second compound 0.000949 µM, first compound 0.00949 µM) was 52.5%. For the same compound, the viability, T/C (second compound 0.000949 µM, first compound 0.03 µM) was 35.5%, the viability, T/C (second compound 0.000949 µM, first compound 0.0949 µM) was 17.3% and the viability, T/C (second compound 0.000949 µM, first compound 0.3 µM) was 12.1%. For the same compound, the viability, T/C (second compound 0.003 µM, first compound 0.000949 µM) was 142%, the viability, T/C (second compound 0.003 µM, first compound 0.003 µM) was 91.9% and the viability, T/C (second compound 0.003 µM, first compound 0.00949 µM) was 55.8%. The viability, T/C (second compound 0.003 µM, first compound 0.03 µM) was 37.4%, the viability, T/C (second compound 0.003 µM, first compound 0.0949 µM) was 18.2% and the viability, T/C (second compound 0.003 µM, first compound 0.3 µM) was 12.9%. The viability, T/C (second compound 0.00949 µM, first compound 0.000949 µM) was 142%, the viability, T/C (second compound 0.00949 µM, first compound 0.003 µM) was 85.4% and the viability, T/C (second compound 0.00949 µM, first compound 0.00949 µM) was 53.8%. For the same compound, the viability, T/C (second compound 0.00949 µM, first compound 0.03 µM) was 34.4%, the viability, T/C (second compound 0.00949 µM, first compound 0.0949 µM) was 15.9% and the viability, T/C (second compound 0.00949 µM, first compound 0.3 µM) was 12.1%. The viability, T/C (second compound 0.03 µM, first compound 0.000949 µM) was 139%, the viability, T/C (second compound 0.03 µM, first compound 0.003 µM) was 80.6% and the viability, T/C (second compound 0.03 µM, first compound 0.00949 µM) was 54.1%. It also gave a viability, T/C (second compound 0.03 µM, first compound 0.03 µM) of 33%, a viability, T/C (second compound 0.03 µM, first compound 0.0949 µM) of 17% and a viability, T/C (second compound 0.03 µM, first compound 0.3 µM) of 12.2%. For the same compound, the viability, T/C (second compound 0.0949 µM, first compound 0.000949 µM) was 102%, the viability, T/C (second compound 0.0949 µM, first compound 0.003 µM) was 68.6% and the viability, T/C (second compound 0.0949 µM, first compound 0.00949 µM) was 48%. It also gave a viability, T/C (second compound 0.0949 µM, first compound 0.03 µM) of 25%, a viability, T/C (second compound 0.0949 µM, first compound 0.0949 µM) of 15.1% and a viability, T/C (second compound 0.0949 µM, first compound 0.3 µM) of 10.3%. It also gave a viability, T/C (second compound 0.3 µM, first compound 0.000949 µM) of 69.7%, a viability, T/C (second compound 0.3 µM, first compound 0.003 µM) of 47.5% and a viability, T/C (second compound 0.3 µM, first compound 0.00949 µM) of 34%. The viability, T/C (second compound 0.3 µM, first compound 0.03 µM) was 17.7%, the viability, T/C (second compound 0.3 µM, first compound 0.0949 µM) was 10.5% and the viability, T/C (second compound 0.3 µM, first compound 0.3 µM) was 8.49%.

CC(C)NCC(C(=O)N1CCN(c2ncnc3c2C(C)CC3O)CC1)c1ccc(Cl)cc1 (centres undefined) + CCn1c(-c2cccnc2C(C)OC)c2c3cc(ccc31)N1CCOC(CC(NC(=O)C(C(C)C)N(C)C(=O)C3(F)CCN(C(=O)C#CC(C)(C)N(C)C)CC3)C(=O)N3CCCC(N3)C(=O)OCC(C)(C)C2)C1 showed an IC50 [1] of 1900 nM, an IC50 [2] of 1870 nM and an IC50 [3] of 2290 nM. For the same compound, the IC50 [4] was 1380 nM, the IC50 [5] was 726 nM and the IC50 [6] was 349 nM. The viability, T/C [7] was 88.1%, the viability, T/C [8] was 96.7% and the viability, T/C [9] was 108%. It also gave a viability, T/C [10] of 69%, a viability, T/C (second compound 0.000949 µM, first compound 3.16 µM) of 40.5% and a viability, T/C (second compound 0.000949 µM, first compound 10 µM) of 29.4%. The viability, T/C [11] was 83.4%, the viability, T/C [12] was 83.4% and the viability, T/C [13] was 88.2%. The viability, T/C [14] was 62.8%, the viability, T/C (second compound 0.003 µM, first compound 3.16 µM) was 39.9% and the viability, T/C (second compound 0.003 µM, first compound 10 µM) was 29.4%. For the same compound, the viability, T/C [15] was 90.2%, the viability, T/C [16] was 82.8% and the viability, T/C [17] was 89.2%. It also gave a viability, T/C [18] of 67%, a viability, T/C (second compound 0.00949 µM, first compound 3.16 µM) of 43.9% and a viability, T/C (second compound 0.00949 µM, first compound 10 µM) of 28%. For the same compound, the viability, T/C [19] was 104%, the viability, T/C [20] was 95.8% and the viability, T/C [21] was 108%. It also gave a viability, T/C [22] of 57.3%, a viability, T/C (second compound 0.03 µM, first compound 3.16 µM) of 36.6% and a viability, T/C (second compound 0.03 µM, first compound 10 µM) of 25.3%. The viability, T/C [23] was 99%, the viability, T/C [24] was 106% and the viability, T/C [25] was 72%. The viability, T/C [26] was 40.6%, the viability, T/C (second compound 0.0949 µM, first compound 3.16 µM) was 34.7% and the viability, T/C (second compound 0.0949 µM, first compound 10 µM) was 18.7%. It also gave a viability, T/C [27] of 99.2%, a viability, T/C [28] of 83.3% and a viability, T/C [29] of 51.8%. For the same compound, the viability, T/C [30] was 27.9%, the viability, T/C (second compound 0.3 µM, first compound 3.16 µM) was 20.4% and the viability, T/C (second compound 0.3 µM, first compound 10 µM) was 15.8%.
